According to patent US4282236A, “β-Lactam antibacterial agents, their use in pharmaceutical compositions, and intermediates” (Beecham Group Limited, priority 1979, dated 1981):

How the values were obtained:
Format in all cases: cell-based
[1] = tested on: Staphylococcus aureus 1517; assay: MIC, DST agar + 10% horse blood; details: read-out: minimum inhibitory concentration (MIC)
Description: (§1) The penem ester (21) (30 mg) was dissolved in a mixture of dioxane (4 ml) and water (1 ml) and hydrogenated over 5% palladium on charcoal catalyst (45 mg) for one hour. A further amount of catalyst (30 mg) was added and the hydrogenation was continued for a further one and a half hours. A 1% solution of sodium bicarbonate (0.6 ml) was added and the mixture filtered through Kieselguhr. The mixture was evaporated to low volume, water (10 ml) was added, and the aqueous solution washed with a little ethyl acetate. Evaporation of the aqueous phase afforded the sodium salt (22) (17 mg) as an amorphous solid. λmax. (EtOH) 364 n.m.
(§2) 1. DST agar + 10% horse blood
(§3) lution for G.div.ve bacteria or
(§4) Minimum Inhibitory Concentrations are expressed in microgrammes per ml.

Proteus mirabilis C977 [2] = assay: MIC, DST agar + 10% horse blood; details: read-out: minimum inhibitory concentration (MIC)
Description: as §1, §2, §3, §4

[3] = tested on: Staphylococcus aureus Russell; assay: MIC, DST agar + 10% horse blood; details: read-out: minimum inhibitory concentration (MIC)
Description: as §1, §2, §3, §4

Citrobacter freundii E8 = assay: MIC, DST agar + 10% horse blood; details: read-out: minimum inhibitory concentration (MIC)
Description: as §1, §2, §3, §4

Proteus morganii I580 = assay: MIC, DST agar + 10% horse blood; details: Morganella morganii, read-out: minimum inhibitory concentration (MIC)
Description: as §1, §2, §3, §4

Bacillus subtilis A = assay: MIC, DST agar + 10% horse blood; details: read-out: minimum inhibitory concentration (MIC)
Description: as §1, §2, §3, §4

Proteus rettgeri WM16 = assay: MIC, DST agar + 10% horse blood; details: Providencia rettgeri, read-out: minimum inhibitory concentration (MIC)
Description: as §1, §2, §3, §4

Escherichia coli 0111 [4] = assay: MIC, DST agar + 10% horse blood; details: read-out: minimum inhibitory concentration (MIC)
Description: as §1, §2, §3, §4

Escherichia coli JT 39 [5] = assay: MIC, DST agar + 10% horse blood; details: JT39, read-out: minimum inhibitory concentration (MIC)
Description: as §1, §2, §3, §4

Proteus vulgaris W091 = assay: MIC, DST agar + 10% horse blood; details: read-out: minimum inhibitory concentration (MIC)
Description: as §1, §2, §3, §4

[6] = tested on: Salmonella typhimurium CT10; assay: MIC, DST agar + 10% horse blood; details: Salmonella enterica, read-out: minimum inhibitory concentration (MIC)
Description: as §1, §2, §3, §4

Pseudomonas aeruginosa A [7] = assay: MIC, DST agar + 10% horse blood; details: read-out: minimum inhibitory concentration (MIC)
Description: as §1, §2, §3, §4

Klebsiella aerogenes A [8] = assay: MIC, DST agar + 10% horse blood; details: read-out: minimum inhibitory concentration (MIC)
Description: as §1, §2, §3, §4

Enterobacter cloacae N1 = assay: MIC, DST agar + 10% horse blood; details: read-out: minimum inhibitory concentration (MIC)
Description: as §1, §2, §3, §4

[9] = tested on: Streptococcus pneumoniae CN33; assay: MIC, DST agar + 10% horse blood; details: read-out: minimum inhibitory concentration (MIC)
Description: as §1, §2, §3, §4

[10] = tested on: Streptococcus pyogenes CN10; assay: MIC, DST agar + 10% horse blood; details: read-out: minimum inhibitory concentration (MIC)
Description: as §1, §2, §3, §4

E. coli ESS = assay: MIC, DST agar + 10% horse blood; details: Escherichia coli, read-out: minimum inhibitory concentration (MIC)
Description: as §1, §2, §3, §4

[11] = tested on: Staphylococcus aureus Oxford; assay: MIC, DST agar + 10% horse blood; details: read-out: minimum inhibitory concentration (MIC)
Description: as §1, §2, §3, §4

Shigella sonnei MB 11967 = assay: MIC, DST agar + 10% horse blood; details: MB11967, read-out: minimum inhibitory concentration (MIC)
Description: as §1, §2, §3, §4

Serratia marcescens US20 = assay: MIC, DST agar + 10% horse blood; details: read-out: minimum inhibitory concentration (MIC)
Description: as §1, §2, §3, §4

Proteus mirabilis C977 [12] = assay: MIC, microtitre using nutrient broth; details: read-out: minimum inhibitory concentration (MIC)
Description: as §1
(§5) 2. Microtitre using nutrient
as §3
(§6) broth a 10^- 4 dilution for G-ve
as §4

[13] = tested on: Staphylococcus aureus Russell; assay: MIC, microtitre using nutrient broth; details: read-out: minimum inhibitory concentration (MIC)
Description: as §1, §5, §3, §6, §4

Escherichia coli 0111 [14] = assay: MIC, microtitre using nutrient broth; details: read-out: minimum inhibitory concentration (MIC)
Description: as §1, §5, §3, §6, §4

Escherichia coli JT 39 [15] = assay: MIC, microtitre using nutrient broth; details: JT39, read-out: minimum inhibitory concentration (MIC)
Description: as §1, §5, §3, §6, §4

[16] = tested on: Salmonella typhimurium CT10; assay: MIC, microtitre using nutrient broth; details: Salmonella enterica, read-out: minimum inhibitory concentration (MIC)
Description: as §1, §5, §3, §6, §4

Pseudomonas aeruginosa A [17] = assay: MIC, microtitre using nutrient broth; details: read-out: minimum inhibitory concentration (MIC)
Description: as §1, §5, §3, §6, §4

Klebsiella aerogenes A [18] = assay: MIC, microtitre using nutrient broth; details: read-out: minimum inhibitory concentration (MIC)
Description: as §1, §5, §3, §6, §4

[19] = tested on: Staphylococcus aureus Oxford; assay: MIC, microtitre using nutrient broth; details: read-out: minimum inhibitory concentration (MIC)
Description: as §1, §5, §3, §6, §4

For `COC(=O)/C=C/C1=C(C(=O)O)N2C(=O)C[C@H]2S1` [compound 22, Sodium 2-(trans-2-Carbomethoxy-vinyl) penem-3-carboxylate], the MIC [1] was 50 µg/mL, the MIC (Proteus mirabilis C977 [2]) was 25 µg/mL and the MIC [3] was 10 µg/mL. It also gave an MIC (Citrobacter freundii E8) of 25 µg/mL, an MIC (Proteus morganii I580) of 50 µg/mL and an MIC (Bacillus subtilis A) of 5 µg/mL. The MIC (Proteus rettgeri WM16) was 50 µg/mL, the MIC (Escherichia coli 0111 [4]) was 25 µg/mL and the MIC (Escherichia coli JT 39 [5]) was 100 µg/mL. The MIC (Proteus vulgaris W091) was 50 µg/mL, the MIC [6] was 50 µg/mL and the MIC (Pseudomonas aeruginosa A [7]) was greater than 100 µg/mL. For the same compound, the MIC (Klebsiella aerogenes A [8]) was 25 µg/mL, the MIC (Enterobacter cloacae N1) was 50 µg/mL and the MIC [9] was 0.5 µg/mL. It also gave an MIC [10] of 2.5 µg/mL, an MIC (E. coli ESS) of 25 µg/mL and an MIC [11] of 5 µg/mL. For the same compound, the MIC (Shigella sonnei MB 11967) was 100 µg/mL, the MIC (Serratia marcescens US20) was 50 µg/mL and the MIC (Proteus mirabilis C977 [12]) was 125 µg/mL. For the same compound, the MIC [13] was 16 µg/mL, the MIC (Escherichia coli 0111 [14]) was 62 µg/mL and the MIC (Escherichia coli JT 39 [15]) was 250 µg/mL. The MIC [16] was 125 µg/mL, the MIC (Pseudomonas aeruginosa A [17]) was greater than 500 µg/mL and the MIC (Klebsiella aerogenes A [18]) was 31 µg/mL. It also gave an MIC [19] of 8 µg/mL.
